Counter-ions that a name gives are not always drawn.
Experiments:
[1] = tested on: primary neurons; test: TMRM fluorescence assay of inner mitochondrial membrane potential (ΔΨm); settings: for Emax / EC50: Mus musculus, Primary neuron; for Emax: read-out: TMRM (Effect-size); for EC50: read-out: TMRM-EC50; for TMRM Primary: primary screen, 12.5 μM; for TMRM Primary / TMRM Rescreen: 24 h
[2] = tested on: Drosophila model for AD; test: Drosophila model for AD: neuronal mitochondrial morphology; type: in vivo; settings: cell bodies of neurons; 100 micromolar, 15 days-of-age
Excerpt: To assay representative compounds in this example, we employed a Drosophila model for AD (X. Wang et al., Mol. Neurobiol. […] Flies expressing this toxic protein show: […] Drugs that show efficacy therefore: enlarge neuronal mitochondria (increased volume, increased surface area, increased length), reduce sphericity, and reduce the number of mitochondria compared to untreated Alzheimer's flies. The AD model flies were collected immediately after eclosion from the pupal case and transferred to food that was laced with drug at 100 micromolar concentration. The flies were aged to 15 days-of-age: this is when the mitochondrial pathology is very robust. We compared the morphology of mitochondria collected from these flies treated with drug and compared them to the mitochondria of flies that remained untreated.

[3] = tested on: primary neurons; test: CellTiter-Glo luminescence-based ATP assay; type: cell-based, mouse; settings: for ATP: ATP orthogonal screen, 24 h; for EC50 / Emax: Mus musculus, Primary neuron, dose response; for EC50: 15 concentrations from 6 nM to 100 uM; for Emax: maximal percent increase relative to in-plate DMSO controls, read-out: ATP (Effect-size)
Procedure, shortened: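 Primary neurons treated from DIV13 for 24 h with compound or DMSO. After part of the medium was removed, CellTiter-Glo reagent was added; plates were shaken 10 min at 200 rpm, kept 2 min in the dark at room temperature, and luminescence read as total ATP.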

[4] = tested on: primary cortical neurons; settings: Ding et al. 2011; cited from earlier work
[5] = tested on: NRF2-mediated antioxidant response; settings: WO2012149478A3; cited from earlier work
[6] = tested on: primary neurons; test: Oxygen consumption rate (OCR) of permeabilized primary neurons; type: cell-based, mouse
Experimental: The oxygen consumption rate (OCR) of permeabilized neurons and isolated brain mitochondria (from 9-month old mice) was measured by the XF96 Extracellular Flux analyzer (Seahorse Bioscience). […] Prior to the start of the OCR measurement, all but 30 μl of Neurobasal A/B27 culture medium was removed from each well. Cells were washed twice with pre-warmed MAS-BSA assay medium (4 mg/ml fatty-acid free BSA, pH=7.2) and incubated in 180 μl at 37° C. for 5 min. Following the cartridge calibration, cells were loaded into the XF96 Extracellular Flux analyzer and further equilibrated for 10 min with two cycles of 3 min mixing and 2 min resting prior to the first measurement of basal respiration. OCR were measured at 37° C. under basal conditions followed by the sequential injection of pre-warmed 10× mitochondrial substrates/ADP (20 μl), oligomycin (22 μl), FCCP (24 μl), and rotenone/antimycin A (26 μl). The final concentrations of injected compounds were as follows: 10 mM mitochondrial substrates (pyruvate/malate or succinate), 1 mM ADP, 1.5 μM oligomycin, 3 μM FCCP, 2 μM rotenone/antimycin A. Saponin (25 μg/ml) was co-injected with substrate/ADP to permeabilize the cells and stimulate ADP-dependent respiration. Two baseline measurements were obtained prior to any injection and 2 response measurements were collected after each injection except for after FCCP addition which consisted of 1 measurement (9 total measurements in each assay). Each measurement cycle consisted of 2 min mixing, 2 min waiting, and 3 min data acquisition. This protocol allowed for sequential assessment of basal cell respiration, maximal mitochondrial respiratory capacity (State 3 with substrate/ADP), proton leak (State 4o with oligomycin), uncoupled maximal respiration (State 3U with FCCP) and non-mitochondrial respiration with the Complex I/Complex III inhibitors, rotenone/antimycin A. Cells were washed twice with MAS buffer to remove residue BSA contained in the assay medium, lysed in 50 μl lysis buffer (25 mM HEPES, 1 mM EGTA, 1 mM EDTA, 0.1% SDS, 1% NP-40, 1× protease and phosphatase inhibitor, pH 7.0 adjusted with NaOH) and total protein was determined by BCA assay. Oxygen consumption was normalized to total protein content as pmol O2/min/ug total protein.
Oxygen consumption rate (OCR) or extracellular acidification rate (ECAR) measurements from permeabilized neurons and isolated brain mitochondria were performed using the XF96 Extracellular Flux analyzer (Seahorse Bioscience). For assays using cultured neurons, primary neurons were dissociated from the forebrains of P0 pups, seeded at 1.9×10^4/well (PDL-coated XF96 plate), cultured to DIV13 and incubated with selected compounds or DMSO (0.1%) for 24 h. Prior to the start of the OCR measurement, all but 30 μl of Neurobasal A/B27 culture medium was removed from each well. Cells were washed twice with pre-warmed MAS-BSA assay medium (70 mM sucrose, 220 mM mannitol, 10 mM KH2PO4, 5 mM MgCl2, 2 mM HEPES and 1 mM EGTA, 4 mg/ml fatty-acid free BSA, pH=7.2 adjusted using KOH) and incubated in 180 ul MAS-BSA medium at 37° C. in a CO2-free incubator for 5 m. […] OCR and ECAR were measured at 37° C. under basal conditions followed by the sequential injection of pre-warmed 10× mitochondrial substrates/ADP (20 μl), oligomycin (22 μl), FCCP (24 μl), and rotenone/antimycin A (26 μl).

[7] = tested on: hippocampal neurons; test: Spontaneous excitatory postsynaptic currents (sEPSC), whole-cell patch-clamp; type: cell-based, mouse; settings: 12.5 μM, 24 hr, DIV8
Experimental: Spontaneous excitatory postsynaptic currents in hippocampal neurons. […] The cultures were treated with selected compounds or 0.1% DMSO for 24 hr before measuring spontaneous excitatory postsynaptic currents (sEPSCs). Whole-cell patch-clamp recordings were performed using an Axon Multiclamp 700b amplifier, 1440A Digidata digitizer and data acquisition using pClamp software (Axon Instruments, Foster City, Calif.). The neurons were first recorded in a current clamp mode to monitor cell health. Only neurons with a resting membrane potential of less than −40 mV were used for further analysis. sEPSC recordings were made at 50 kHz and subsequently filtered at 5 kHz. The membrane potential was held at −70 mV during the recording. […] Once a neuron was patched, its seal was monitored, and if the transient resistance was less than […], the recording was not used for analysis. All experiments were performed at room temperature. The frequency and amplitude of sEPSCs were analyzed using the template match search (pClamp) and measured as a percentage of baseline level, calculated from the average of a 5 min baseline recording. The values of the amplitude and frequency of EPSCs for each recording was reported as an average from a 5 min recording period.

Structure (SMILES) | Emax [1] | EC50 [1] | TMRM Primary [1] | TMRM Rescreen [1] | Surface area of mitochondria, p (treated vs untreated) [2] | ATP [3] | EC50 [3] | Emax [3] | ΔΨm in primary cortical neurons treated with Aβ peptide [4] | neuroprotection by inducing the NRF2-mediated antioxidant response [5] | ATP production in neurons ([3]; after 24 hr of treatment) | State 3 and 3u respiration stimulated by either Complex I or Complex II substrates ([6]; 10 μM, 24 h, cultured neurons) | OCR ([6]; oxygen consumption rate, significant change) | sEPSC frequency and amplitude [7]
O=c1c(-c2ccc(O)cc2)coc2cc(O)cc(O)c12 [GENISTEIN] | 19.5% | 1.3 µM | 3.38 Z-scores | 4.21 Z-scores | p = 0.083 | 5.96 Z-scores | 3 µM | 20.6% | increase ΔΨm | – | – | – | – | –
COC(=O)[C@@H]1[C@H]2C[C@H]3c4[nH]c5ccccc5c4CCN3C[C@@H]2CC[C@@H]1O [YOHIMBINE HYDROCHLORIDE] | 18.6% | 0.62 µM | 2.70 Z-scores | 5.70 Z-scores | – | 3.11 Z-scores | 0.27 µM | 23.6% | – | neuroprotective | – | – | – | –
CCCCOc1ccc(C(=O)CCN2CCCCC2)cc1 [DYCLONINE HYDROCHLORIDE] | 22% | 0.75 µM | 3.64 Z-scores | 6.30 Z-scores | – | 7.04 Z-scores | 0.14 µM | 20.7% | – | – | increased | significant increase | increased | increasing both frequency and amplitude

— US20230003721A1, “MITOTHERAPEUTICS FOR THE TREATMENT OF BRAIN DISORDERS” (The University of Florida Research Foundation, Inc., priority 2019, published 2023)
